Assays:
[1] = Inhibition of human sPLA2 expressed in Escherichia coli assessed as release of [14C]oleate
UT7 = assay: Induction of cell proliferation in human UT7 cells at 10 uM after 42 hrs by thymidine incorporation assay; format: functional
[2] = target: Sodium-dependent serotonin transporter (Homo sapiens, UniProt P31645); assay: Inhibition of recombinant human 5-HT transporter expressed in HEK293 cells assessed as reduction in [3H]-5-HT reuptake; format: cell-based
[3] = target: Sodium-dependent dopamine transporter (Homo sapiens, UniProt Q01959); assay: Inhibition of recombinant human DA transporter assessed as reduction in [3H]-DA reuptake
[4] = target: Sodium-dependent noradrenaline transporter (Homo sapiens, UniProt P23975); assay: Inhibition of recombinant human norepinephrine transporter assessed as reduction in [3H]-NA reuptake
[5] = target: Sodium-dependent dopamine transporter (Rattus norvegicus, UniProt P23977); assay: Inhibition of DAT in Wistar rat synaptosomes assessed as [3H]-DA reuptake by liquid scintillation counting; format: subcellular
[6] = target: Sodium-dependent serotonin transporter (Rattus norvegicus, UniProt P31652); assay: Inhibition of 5-HT in Wistar rat synaptosomes assessed as [3H]-5-HT reuptake by liquid scintillation counting; format: subcellular
[7] = Inhibition of NAT in Wistar rat synaptosomes assessed as [3H]-NA reuptake by liquid scintillation counting; format: subcellular
[8] = target: Voltage-gated inwardly rectifying potassium channel KCNH2 (Homo sapiens, UniProt Q12809); assay: Inhibition of human ERG channel tail current
[9] = Inhibition of recombinant human sPLA2 after 30 mins microtiter plate assay

Chain of Sodium-dependent serotonin transporter (Rattus norvegicus, UniProt P31652) (P31652 whole entry): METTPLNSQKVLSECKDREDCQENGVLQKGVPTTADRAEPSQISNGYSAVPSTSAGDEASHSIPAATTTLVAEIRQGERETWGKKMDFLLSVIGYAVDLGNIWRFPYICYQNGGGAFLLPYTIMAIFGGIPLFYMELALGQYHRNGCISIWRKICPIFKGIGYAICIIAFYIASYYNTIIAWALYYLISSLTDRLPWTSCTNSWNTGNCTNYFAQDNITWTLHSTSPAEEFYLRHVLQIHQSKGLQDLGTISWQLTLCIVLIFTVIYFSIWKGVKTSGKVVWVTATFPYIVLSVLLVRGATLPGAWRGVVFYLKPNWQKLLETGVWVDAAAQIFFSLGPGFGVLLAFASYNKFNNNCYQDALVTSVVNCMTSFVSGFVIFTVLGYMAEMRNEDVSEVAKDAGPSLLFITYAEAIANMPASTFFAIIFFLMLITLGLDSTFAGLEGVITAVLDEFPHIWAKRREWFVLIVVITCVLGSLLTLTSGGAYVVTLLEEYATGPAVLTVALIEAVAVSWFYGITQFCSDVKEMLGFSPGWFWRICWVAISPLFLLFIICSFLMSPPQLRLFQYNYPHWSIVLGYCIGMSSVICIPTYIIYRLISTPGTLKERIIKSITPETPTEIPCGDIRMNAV
Chain of Sodium-dependent dopamine transporter (Homo sapiens, UniProt Q01959) (Q01959 whole entry): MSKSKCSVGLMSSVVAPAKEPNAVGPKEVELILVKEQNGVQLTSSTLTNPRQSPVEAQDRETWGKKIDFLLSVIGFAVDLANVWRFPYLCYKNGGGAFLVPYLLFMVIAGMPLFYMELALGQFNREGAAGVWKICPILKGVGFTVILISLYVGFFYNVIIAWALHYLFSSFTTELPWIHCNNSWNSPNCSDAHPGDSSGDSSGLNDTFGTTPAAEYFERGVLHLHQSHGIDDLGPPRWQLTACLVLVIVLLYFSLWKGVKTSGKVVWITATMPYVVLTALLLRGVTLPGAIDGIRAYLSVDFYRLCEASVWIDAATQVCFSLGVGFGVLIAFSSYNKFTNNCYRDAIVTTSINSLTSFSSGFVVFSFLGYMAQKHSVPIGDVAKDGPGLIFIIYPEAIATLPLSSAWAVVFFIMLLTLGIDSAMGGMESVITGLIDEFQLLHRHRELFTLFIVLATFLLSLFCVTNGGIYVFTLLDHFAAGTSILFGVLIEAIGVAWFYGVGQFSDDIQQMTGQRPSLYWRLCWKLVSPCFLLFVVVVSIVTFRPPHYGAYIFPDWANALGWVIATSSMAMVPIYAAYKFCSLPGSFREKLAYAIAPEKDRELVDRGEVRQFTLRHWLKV
Chain of Sodium-dependent dopamine transporter (Rattus norvegicus, UniProt P23977) (P23977 whole entry): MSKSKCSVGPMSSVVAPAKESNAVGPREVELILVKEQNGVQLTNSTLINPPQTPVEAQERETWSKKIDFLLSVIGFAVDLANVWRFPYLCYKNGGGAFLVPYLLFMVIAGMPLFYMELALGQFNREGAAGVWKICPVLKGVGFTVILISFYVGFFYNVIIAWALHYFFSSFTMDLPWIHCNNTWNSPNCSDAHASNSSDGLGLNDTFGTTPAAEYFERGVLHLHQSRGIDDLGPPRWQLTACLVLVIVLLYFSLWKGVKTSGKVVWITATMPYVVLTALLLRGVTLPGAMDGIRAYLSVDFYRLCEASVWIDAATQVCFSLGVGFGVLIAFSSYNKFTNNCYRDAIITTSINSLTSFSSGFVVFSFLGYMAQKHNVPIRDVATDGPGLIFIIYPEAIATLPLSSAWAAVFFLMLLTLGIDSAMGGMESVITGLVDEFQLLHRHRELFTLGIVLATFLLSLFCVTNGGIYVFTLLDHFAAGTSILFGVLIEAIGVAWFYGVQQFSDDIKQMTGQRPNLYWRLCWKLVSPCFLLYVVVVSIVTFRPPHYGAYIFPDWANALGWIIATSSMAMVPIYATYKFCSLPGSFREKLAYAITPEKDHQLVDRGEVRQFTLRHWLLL
Chain of Sodium-dependent serotonin transporter (Homo sapiens, UniProt P31645) (P31645 whole entry): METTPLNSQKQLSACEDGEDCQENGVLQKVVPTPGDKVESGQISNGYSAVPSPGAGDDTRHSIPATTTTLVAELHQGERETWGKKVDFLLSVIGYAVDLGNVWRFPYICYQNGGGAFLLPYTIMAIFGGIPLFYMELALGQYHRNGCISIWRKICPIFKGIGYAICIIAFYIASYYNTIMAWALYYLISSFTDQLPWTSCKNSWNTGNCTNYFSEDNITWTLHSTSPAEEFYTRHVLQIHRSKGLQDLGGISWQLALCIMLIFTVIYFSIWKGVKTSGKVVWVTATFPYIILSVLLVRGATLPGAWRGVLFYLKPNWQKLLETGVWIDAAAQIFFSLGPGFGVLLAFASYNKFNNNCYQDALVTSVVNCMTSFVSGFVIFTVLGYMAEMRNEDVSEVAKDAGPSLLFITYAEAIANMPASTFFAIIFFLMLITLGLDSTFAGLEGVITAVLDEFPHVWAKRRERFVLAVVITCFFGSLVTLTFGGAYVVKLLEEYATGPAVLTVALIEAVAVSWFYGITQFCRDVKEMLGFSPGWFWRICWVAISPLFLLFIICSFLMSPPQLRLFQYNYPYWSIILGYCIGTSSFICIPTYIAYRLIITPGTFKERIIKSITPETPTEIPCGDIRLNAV
Chain of Sodium-dependent noradrenaline transporter (P23975 whole entry): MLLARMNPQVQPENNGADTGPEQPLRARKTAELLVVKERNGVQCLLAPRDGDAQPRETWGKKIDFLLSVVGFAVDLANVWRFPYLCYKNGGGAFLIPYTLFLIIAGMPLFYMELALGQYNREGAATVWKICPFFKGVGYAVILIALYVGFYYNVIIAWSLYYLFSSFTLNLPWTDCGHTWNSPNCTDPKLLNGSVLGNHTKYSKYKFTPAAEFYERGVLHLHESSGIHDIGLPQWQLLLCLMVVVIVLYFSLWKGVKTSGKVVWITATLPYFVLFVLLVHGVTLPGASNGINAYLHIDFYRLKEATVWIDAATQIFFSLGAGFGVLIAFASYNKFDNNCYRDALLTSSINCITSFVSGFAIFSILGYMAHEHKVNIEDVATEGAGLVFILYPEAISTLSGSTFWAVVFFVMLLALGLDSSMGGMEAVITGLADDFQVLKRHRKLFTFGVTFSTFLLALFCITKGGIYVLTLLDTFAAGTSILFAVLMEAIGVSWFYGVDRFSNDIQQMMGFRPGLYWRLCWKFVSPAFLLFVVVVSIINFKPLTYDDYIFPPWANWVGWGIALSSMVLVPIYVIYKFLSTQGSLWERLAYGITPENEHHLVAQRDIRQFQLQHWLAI
Chain of Voltage-gated inwardly rectifying potassium channel KCNH2 (Q12809 whole entry): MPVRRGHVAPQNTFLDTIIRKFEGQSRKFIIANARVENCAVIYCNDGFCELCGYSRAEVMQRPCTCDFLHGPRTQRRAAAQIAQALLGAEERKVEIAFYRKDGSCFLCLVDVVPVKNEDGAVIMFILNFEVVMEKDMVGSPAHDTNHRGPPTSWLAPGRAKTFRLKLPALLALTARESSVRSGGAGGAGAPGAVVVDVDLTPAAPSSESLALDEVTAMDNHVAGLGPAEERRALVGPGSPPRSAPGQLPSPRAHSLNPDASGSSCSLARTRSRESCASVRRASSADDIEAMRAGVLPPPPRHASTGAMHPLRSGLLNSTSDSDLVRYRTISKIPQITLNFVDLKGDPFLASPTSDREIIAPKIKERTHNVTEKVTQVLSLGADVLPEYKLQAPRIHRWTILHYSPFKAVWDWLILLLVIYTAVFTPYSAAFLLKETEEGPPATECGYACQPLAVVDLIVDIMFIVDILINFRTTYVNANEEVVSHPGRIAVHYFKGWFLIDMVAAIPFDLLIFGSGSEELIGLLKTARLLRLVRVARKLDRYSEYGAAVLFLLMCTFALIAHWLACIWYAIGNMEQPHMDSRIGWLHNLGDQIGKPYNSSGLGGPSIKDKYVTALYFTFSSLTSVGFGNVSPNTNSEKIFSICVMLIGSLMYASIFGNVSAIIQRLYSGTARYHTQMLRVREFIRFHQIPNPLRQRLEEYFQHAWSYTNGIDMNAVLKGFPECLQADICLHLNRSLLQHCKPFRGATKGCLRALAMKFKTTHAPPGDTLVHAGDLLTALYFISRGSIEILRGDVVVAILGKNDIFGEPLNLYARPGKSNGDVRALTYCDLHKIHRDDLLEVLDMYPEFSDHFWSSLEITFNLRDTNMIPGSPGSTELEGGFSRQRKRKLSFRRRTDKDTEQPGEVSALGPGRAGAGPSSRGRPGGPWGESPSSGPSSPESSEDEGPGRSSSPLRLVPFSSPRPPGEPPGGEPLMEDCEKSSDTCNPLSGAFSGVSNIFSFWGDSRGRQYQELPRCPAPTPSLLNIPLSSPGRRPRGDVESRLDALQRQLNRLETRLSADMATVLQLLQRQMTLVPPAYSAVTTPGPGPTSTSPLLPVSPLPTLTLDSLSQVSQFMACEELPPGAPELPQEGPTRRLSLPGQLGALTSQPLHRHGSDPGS

Compound	IC50 [5] [nM]	IC50 [6] [nM]	IC50 [7] [nM]	other results
O=C(O)CC[C@@H](CSc1ccc(Cc2ccccc2)cc1)NC(=O)CCCCCCc1ccccc1	–	–	–	IC50 [1]: 21 nM
COC(=O)[C@H](CCCCNC(=O)CN(CC(=O)CNc1ccc(OC)cc1)C(=O)C1CCCC(C(=O)N(CC(=O)NCCCC[C@H](NC(=O)OCc2ccccc2)C(=O)OC)CC(=O)NCc2ccc(OC)cc2)C1)NC(=O)OCc1ccccc1 (some centres not stated)	–	–	–	Activity (UT7): 33%
CC(C)C(C)[C@]1(c2ccc3ccccc3c2)CC[C@](C)(O)CC1 (some centres not stated)	–	–	–	IC50 [2]: 18 nM; IC50 [3]: 21 nM; IC50 [4]: 33 nM
CN1C2CCC1CC(Oc1ccc3cc(-c4ccoc4)c(=O)oc3c1)C2 (configuration not stated)	70	2.9	3.8	–
Cc1ccc(C2CC3CCC(C2)N3C)cc1Br (configuration not stated)	13	1.4	15	–
CN1C2CCC1CC(c1ccc3ccccc3c1)C2 (configuration not stated)	34	0.23	18	–
COc1cc2ccc(OC3CC4CCC(C3)N4C)cc2oc1=O (configuration not stated)	9.9	10	0.48	–
CN(C)CC1(c2ccc(Cl)c(Cl)c2)CCCC(O)C1 (configuration not stated)	–	–	–	IC50 [3]: 13 nM
CNC[C@]1(c2ccc3ccccc3c2)CC[C@@](C)(O)CC1	–	–	–	IC50 [2]: 11 nM; IC50 [3]: 40 nM
CC1=NN(c2ccc(C)c(C)c2)C(=O)/C1=N\Nc1cccc(-c2cccc(C(=O)O)c2)c1O [ELTROMBOPAG]	–	–	–	IC50 [8]: 690 nM
CCc1c(C(=O)C(N)=O)c2c(OCC(=O)O)cccc2n1Cc1ccccc1 [VARESPLADIB]	–	–	–	IC50 [9]: 9 nM

— ChEMBL document CHEMBL3769327, “Emerging targets and new small molecule therapies in Parkinson's disease treatment” (Bioorg Med Chem, 2016)
